Test results: US20120064154A1, “SOLID DRUG FOR ORAL USE” (KISSEI PHARMACEUTICAL CO., LTD., priority 2002, published 2012)

Key:
Stability of KMD-3213 = format: physicochemical
Solubility of KMD-3213 = format: physicochemical

C[C@H](Cc1cc2c(c(C(N)=O)c1)N(CCCO)CC2)NCCOc1ccccc1OCC(F)(F)F [KMD-3213]
stability (Stability of KMD-3213; against a light exposure): relatively unstable
stability (Stability of KMD-3213; in acidic conditions): stable
solubility (Solubility of KMD-3213; in a neutral medium such as water): hardly soluble
solubility (Solubility of KMD-3213; in an acidic medium): relatively a high solubility
